How the values were obtained:
[1] = test system: Plasmodium falciparum; assay: NOVARTIS: Inhibition of Plasmodium falciparum 3D7 (drug-susceptible) proliferation in erythrocyte-based infection assay; format: functional, organism-based; conditions: Plasmodium falciparum, 3D7
[2] = NOVARTIS: Cytotoxicity against human hepatocellular carcinoma cell line (Huh7); format: toxicity, cell-based, Huh-7; conditions: Huh7 cells (hepatocellular carcinoma cell line)
[3] = test system: Plasmodium falciparum; assay: NOVARTIS: Inhibition of Plasmodium falciparum W2 (drug-resistant) proliferation in erythrocyte-based infection assay; format: functional, organism-based; conditions: Plasmodium falciparum, W2; read-out: EC50

CC=C[C@H]1O[C@@](O)([C@@H](C)C(O)C(C)[C@H]2OC(=O)C(OC)=CC(C)=C[C@@H](C)[C@H](O)C(CC)[C@@H](O)[C@H](C)CC(C)=CC=C[C@@H]2OC)C[C@@H](O[C@H]2C[C@@H](O)[C@H](OC(N)=O)[C@@H](C)O2)[C@@H]1C (stereo partly specified) gave an EC50 [1] of 1180 nM, a CC50 [2] greater than 10000 nM and an EC50 [3] greater than 1250 nM.

CC(=O)Nc1cccc(NC(=O)C(F)(F)F)c1 showed an EC50 [1] of 1180 nM, a CC50 [2] greater than 10000 nM and an EC50 [3] greater than 1250 nM.

Work on COc1ccccc1/C=C/CN(CCN1CCN(S(=O)(=O)c2cccc(C(F)(F)F)c2)CC1)C(=O)Cc1ccccc1 yielded an EC50 [1] of 1320 nM, a CC50 [2] greater than 10000 nM and an EC50 [3] greater than 1250 nM.

With c1cncc(CCNc2nccn3c(-c4cccc5ccccc45)cnc23)c1 the EC50 [1] was 1240 nM, the CC50 [2] was greater than 10000 nM and the EC50 [3] was greater than 1250 nM.

CN(C)CCCNc1ncc(C(=O)NCCc2ccccc2)c(NCC2CCCCC2)n1 gave an EC50 [1] of 1240 nM, a CC50 [2] greater than 10000 nM and an EC50 [3] greater than 1250 nM.

In the case of CCCc1cc2c(=O)c(-c3cc4ccccc4o3)coc2cc1OC(C)C(=O)OCC (stereo unspecified), the EC50 [1] is reported as greater than 1170 nM, the CC50 [2] is reported as greater than 10000 nM and the EC50 [3] is reported as greater than 1250 nM.

Compound c1ccc(COCC[N+]2(Cc3ccccc3)CCCCC2)cc1 has an EC50 [1] greater than 1160 nM, a CC50 [2] greater than 10000 nM and an EC50 [3] greater than 1250 nM.

C=CCOC(=O)C1=C(C)N2CCSC2=C(C#N)C1c1ccco1 (stereo unspecified) gave an EC50 [1] of 1210 nM, a CC50 [2] greater than 10000 nM and an EC50 [3] greater than 1250 nM.

For O=C(Nc1ccc2c3c(cccc13)CC2)c1cccc2ccccc12, the EC50 [1] was greater than 1200 nM, the CC50 [2] was greater than 10000 nM and the EC50 [3] was greater than 1250 nM.

With COc1cc(C(=O)/C=C/Nc2ccc(N(C)C)cc2)cc(OC)c1OC the EC50 [1] was greater than 1200 nM, the CC50 [2] was greater than 10000 nM and the EC50 [3] was greater than 1250 nM.

Work on Cc1ccc2oc(=O)c3cnn(CC(=O)Nc4ccc(F)cc4Cl)c3c2c1 yielded an EC50 [1] greater than 1150 nM, a CC50 [2] greater than 10000 nM and an EC50 [3] greater than 1250 nM.

For COc1cccc(/C=C2/SC(=Nc3ccccc3)NC2=O)c1OC, the EC50 [1] was greater than 1150 nM, the CC50 [2] was greater than 10000 nM and the EC50 [3] was greater than 1250 nM.

Compound CC(C)CNC(=O)c1cnc(NCCCN2CCCCC2C)nc1Nc1ccccc1 (stereo unspecified) has an EC50 [1] of 1150 nM, a CC50 [2] greater than 10000 nM and an EC50 [3] greater than 1250 nM.

Work on COc1ccc(-n2nc(C(=O)NCC(=O)Nc3ccc(F)cc3)c3ccccc3c2=O)cc1Cl yielded an EC50 [1] greater than 1140 nM, a CC50 [2] greater than 10000 nM and an EC50 [3] greater than 1250 nM.

Work on COc1ccc(S(=O)(=O)NCC2CCC(C(=O)NCC(OC)OC)CC2)cc1 (stereo unspecified) yielded an EC50 [1] greater than 1180 nM, a CC50 [2] greater than 10000 nM and an EC50 [3] greater than 1250 nM.

COc1ccc(CN2CC(=O)N(c3ccc(Cl)cc3)C2=S)cc1OC showed an EC50 [1] greater than 1180 nM, a CC50 [2] greater than 10000 nM and an EC50 [3] greater than 1250 nM.

Work on COc1ccc([C@@H]2C[C@H](OC(=O)c3ccc4c(c3)OCO4)C(=O)N2C)cc1 yielded an EC50 [1] of 1180 nM, a CC50 [2] greater than 10000 nM and an EC50 [3] greater than 1250 nM.

Compound CCC(c1nc2ccccc2c(=O)n1CC)N1CCN(C(=O)Nc2ccccc2C(F)(F)F)CC1 (stereo unspecified) has an EC50 [1] of 1300 nM, a CC50 [2] greater than 10000 nM and an EC50 [3] greater than 1250 nM.

For O=C1OC(c2ccccc2)=NC1=C(Cl)Cl, the EC50 [1] was greater than 1160 nM, the CC50 [2] was greater than 10000 nM and the EC50 [3] was greater than 1250 nM.

For Cc1ccc2nc(-c3ccc(NC(=O)c4ccc(S(=O)(=O)N5CC(C)CC(C)C5)cc4)cc3)sc2c1 (stereo unspecified), the EC50 [1] was 1320 nM, the CC50 [2] was greater than 10000 nM and the EC50 [3] was greater than 1250 nM.

Work on CC(=NOC(=O)c1ccco1)c1cnccn1 yielded an EC50 [1] of 1250 nM, a CC50 [2] greater than 10000 nM and an EC50 [3] greater than 1250 nM.

For CC1CC(C)CN(S(=O)(=O)c2ccc(C(=O)Nc3ccc(-c4nc5ccccc5o4)cc3)cc2)C1 (stereo unspecified), the EC50 [1] was 1200 nM, the CC50 [2] was greater than 10000 nM and the EC50 [3] was greater than 1250 nM.

Work on COc1ccc(-n2nc(C(=O)NCC(=O)NCCCN3CCOCC3)c3ccccc3c2=O)cc1Cl yielded an EC50 [1] of 1260 nM, a CC50 [2] greater than 10000 nM and an EC50 [3] greater than 1250 nM.

For Cc1ccc(-n2c(SCc3cc(=O)n4ccccc4n3)nc3ccsc3c2=O)cc1C, the EC50 [1] was greater than 1160 nM, the CC50 [2] was greater than 10000 nM and the EC50 [3] was greater than 1250 nM.

For O=C(O)c1ccc(C=NNc2ccc([N+](=O)[O-])cc2)cc1, the EC50 [1] was greater than 1160 nM, the CC50 [2] was greater than 10000 nM and the EC50 [3] was greater than 1250 nM.

COc1cccc(N2C(=O)/C(=C/c3cccnc3)SC2=S)c1 gave an EC50 [1] greater than 1140 nM, a CC50 [2] greater than 10000 nM and an EC50 [3] greater than 1250 nM.

CCOc1ccc(Nc2nc(N3CCCCC3)nc(N3CCCCC3)n2)cc1 gave an EC50 [1] of 1190 nM, a CC50 [2] greater than 10000 nM and an EC50 [3] greater than 1250 nM.

— ChEMBL document CHEMBL1156829 (Proc Natl Acad Sci U S A, 2008)
